Data set [1] is described as follows: Stopped-flow kinetic analysis of tetrazines with eq-5-hydroxy-trans-cyclooctene in PBS buffer at 25° C. To be noted: for k2, second order rate constant / kobs: PBS pH 7.4, 25° C.; for k2, second order rate constant: linear regression of kobs; for kobs: 0.025 mM tetrazine; for krel: relative to 5b, PBS, 25° C. The protocol: Solutions (5 mL) of tetrazines 5b, 6c, 5l, 6a and 4f (0.050 mM) were prepared in PBS buffer (pH 7.4). Solutions (10 mL) of eq-5-hydroxy-trans-cyclooctene (0.50, 0.60, 0.70, 0.80 mM) were prepared in PBS buffer (pH 7.4). The reactions between tetrazines and trans-cyclooctene were measured under pseudo-first order conditions using SX 18MV-R stopped-flow spectrophotometer (Applied Photophysics Ltd.). Each solution of tetrazine and trans-cyclooctene were injected in equal volumes via 3 mL syringes into the stopped-flow instrument at 25° C., resulting in final concentration of 0.025 mM of tetrazines and 0.25, 0.30, 0.35, 0.40 mM trans-cyclooctene. The reaction was monitored by the decay of absorbance associated with the tetrazines (5b at 263 nm, 6c at 268 nm, 5l at 274 nm, 6a at 296 nm, 4f at 266 nm). Reaction were repeated in triplicate. With Prism software, an observed rate constant, kobs, was obtained by nonlinear regression. Second order rate constants, k2, were calculated by linear regression between kobs and final concentration of trans-cyclooctene.

Data set [2] is described as follows: Tetrazine stability in PBS buffer in ambient light at 25° C. Type of data set: physicochemical. To be noted: PBS buffer pH 7.4, ambient light, day 0-5. The method, then:
Solutions (3 mL) of tetrazine 5b, 5l and 6c (400 μM) were prepared in PBS buffer (pH 7.4) in vials and stored in ambient light at 25° C. Tetrazine concentrations were determined by recording the absorbance at 518 nm (6c) and 520 nm (5b and 5l) in cuvettes in day 0, 1, 3 and 5. A solution of 6a (50 μM) was prepared in PBS buffer (pH 7.4) in vials and stored in ambient light at room temperature. Tetrazine concentration was determined by recording the absorbance at 520 nm in cuvettes at day 0, 1, 3 and 5.

Another data set can be described thus: Experimental log P. Type of data set: physicochemical.
Another data set addresses T1, human MAGL enzyme (Homo sapiens, UniProt Q99685).
T1 sequence (Q99685 1-303): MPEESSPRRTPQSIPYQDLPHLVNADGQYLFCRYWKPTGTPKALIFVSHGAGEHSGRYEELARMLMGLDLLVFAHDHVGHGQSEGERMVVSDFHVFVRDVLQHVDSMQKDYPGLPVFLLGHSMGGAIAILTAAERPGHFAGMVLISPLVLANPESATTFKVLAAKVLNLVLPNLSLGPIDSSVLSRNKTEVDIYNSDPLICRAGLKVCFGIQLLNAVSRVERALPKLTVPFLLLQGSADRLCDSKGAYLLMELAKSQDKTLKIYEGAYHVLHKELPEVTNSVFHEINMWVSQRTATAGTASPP
The data set is described as follows: MAGL in vitro activity assay (7-HCA substrate, fluorescence). In kind it is biochemical. Conditions: human MAGL pre-treated 30 min at room temperature, 7-HCA substrate 1 h; read-out: IC50, inhibition of MAGL activity in vitro. The method, then: MAGL in vitro activity assay. The MAGL in vitro activity assay was performed based on a reported protocol. Briefly, human MAGL enzyme was pre-treated with compounds at room temperature for 30 min, and subsequently incubated with 7-hydroxycoumarinyl arachidonate (7-HCA) as a substrate at room temperature for 1 h. The fluorescence signals were measured on an Envision plate reader (excitation 355 nm, emission 460 nm).

The nature of data set [3]: Stopped-flow kinetic analysis of MAGL tetrazines with eq-5-hydroxy-trans-cyclooctene in MeOH at 25° C. To be noted: for kobs: 0.04 mM tetrazine, 0.40 mM trans-cyclooctene, MeOH; for kobs / krel: 25° C.; for krel: relative to 12, MeOH. The protocol: Solutions (3 mL) of tetrazines 100a, 100b, 100c and 12 (0.080 mM) was prepared in MeOH. Solutions (3 mL) of eq-5-hydroxy-trans-cyclooctene (0.80 mM) were prepared in MeOH. The reactions between tetrazines and trans-cyclooctene were measured under pseudo-first order conditions using SX 18MV-R stopped-flow spectrophotometer (Applied Photophysics Ltd.). Each solution of tetrazine and trans-cyclooctene were injected in equal volumes via 3 mL syringes into the stopped-flow instrument at 25° C., resulting in final concentration of 0.04 mM of tetrazines and 0.40 mM trans-cyclooctene. The reaction was monitored by the decay of absorbance associated with the tetrazines (10a and 10b at 300 nm, 10c at 280 nm). Reaction were repeated in triplicate. With Prism software, an observed rate constant, kobs, was obtained by nonlinear regression.

Another data set deals with T2, endogenous MAGL (Homo sapiens, UniProt Q99685).
T2 sequence (Q99685 1-303): T1 sequence (Q99685 1-303)
The data set is described as follows: Labeling of endogenous MAGL in live cells, gel-based ABPP with TCO-TAMRA. Type of data set: cell-based. The method, then:
Cell culture and probe treatment. Human brain vascular pericytes were cultured in Dulbecco's Modified Eagle Medium/Nutrient Mixture F-12 (DMEM/F-12) GlutaMAX media supplemented with 5% heat-inactivated fetal bovine serum (HI FBS), 1× pericyte growth supplement (PGS), and 1× penicillin-streptomycin at 37° C. with 5% CO2 in a humidified environment. Probe treatment was performed in duplicates. Cells were plated in 6-well plates and cultured overnight in growth media. Live cells were then treated with 300 nM KML29 as a competitor compound (or DMSO as a control) at 37° C. for 1 h. Cells were subsequently treated with probe 9 (0.3 nM-3.2 μM) at 37° C. for 1 h (cells pre-treated with KML29 were treated with 32 nM of probe 9), after which the cells were washed with fresh growth media. The media were then placed with fresh media containing 2 μM of TCO-TAMRA, and the cells were incubated at 37° C. for 30 min. To quench the reaction, the media were replaced with PBS containing 100 μM tetrazine amine, and the cells were washed with cold PBS and harvested with a scrapper. The suspensions were centrifuged at 10,000×g for 1 min at 37° C., and the cell pellets were lysed in PBS containing 0.25% sodium dodecyl sulfate (SDS) with sonication. The protein concentration was measured with a bicinchoninic acid (BCA) assay kit (Thermo Scientific) and normalized. In-gel fluorescence and data analysis. The proteomes were analyzed with 1.0 mm thick 4-12% bis-tris 15-well protein gels in 2-(N-morpholino)ethanesulfonic acid (MES) buffer. The gels were scanned with a Typhoon FLA 9500 Biomolecular Imager (GE Healthcare) with the TAMRA channel with 532 nm excitation and a 575 nm long pass emission filter. To measure the total protein loading, the gels were treated with ClearPage Instant Blue (CBS Scientific) overnight, and after brief destaining with water, scanned with an Odyssey Imager (Li-COR) at the 700 nm channel. The in-gel fluorescence images were processed with ImageJ software (v1.47, NIH), and the intensities were quantified with Image Studio (v5.2, Li-COR) with background subtraction. The coomassie images were processed and quantified with the Image Studio software with background subtraction. For analysis of the cellular potency, the in-gel fluorescence intensities of the two MAGL bands were averaged, normalized with the total coomassie intensity of the corresponding sample, and fitted with a dose-response equation with Prism v7.02 (GraphPad). […] The media were then placed with fresh media containing 2 μM of TCO-TAMRA, and the cells were incubated at 37° C. for 30 min. […] The protein concentration was measured with a bicinchoninic acid (BCA) assay kit (Thermo Scientific) and normalized. In-gel fluorescence and data analysis. […]

Data set [4] can be described thus: Stopped-flow kinetics of 9 versus 10 with axial 5-hydroxy-trans-cyclooctene in methanol. Conditions: 25° C.; for kobs, average rate constant: 0.05 mM tetrazine, 0.5 mM trans-cyclooctene. The method, then:
0.1 mM solutions (10 mL) in methanol were prepared from stock solutions of 9 (16.3 mg in 632 μL DMF, 50 mM) and 10 (10.0 mg in 422 μL MeOH, 100 mM). A 1.0 mM solution (25 mL) in methanol of axial 5-hydroxy-trans-cyclooctene 11 was also prepared from a stock solution (29.0 mg in 460 μL MeOH, 500 mM). The reaction between tetrazine and a trans-cyclooctene was measured under pseudo-first order conditions using a SX 18MV-R stopped-flow spectrophotometer (Applied Photophysics Ltd.). The 0.1 mM solution of tetrazines 9 or 10 and the 1.0 mM solution of trans-cyclooctene 11 were injected as equal volumes via syringe into the stopped-flow instrument which was held at 25° C., resulting in a final concentration of the tetrazine of 0.05 mM and a final concentration of the trans-cyclooctene of 0.5 mM. The reaction was monitored by the absorbance decay of tetrazine measured at 290 nm. Data points were collected every 0.1 second for 400 seconds and reaction was repeated in triplicate. Prism software was used to obtain the observed rate of each reaction, kobs, which was determined by nonlinear regression analysis resulting in average rate constants of 0.01033 s^−1 for 9 and 0.00975 s^−1 for 10. The relative rate, krel, of 9 versus 10 was thus determined to be 1.06.

“And” between values parts separate entries of the source, which are not always exact repeats. Equal values may be shown once.

The term logP denotes the decadic logarithm of the partition coefficient of the neutral form, usually between octanol and water. A lower logP goes with a more hydrophilic compound. As a reminder, the IC50 is the concentration that inhibits the measured activity by half.

With `COC(=O)CCc1nncnn1` [4f, methyl 3-(1,2,4,5-tetrazin-3-yl)propanoate], the “k2, second order rate constant” value in data set [1] was 1591 ± 25.74 M⁻¹ s⁻¹. Moreover, the kobs in data set [1] (TCO 0.25 mM) was found to be 0.53 s⁻¹; in data set [1] (TCO 0.30 mM), 0.61 s⁻¹; in data set [1] (TCO 0.35 mM) it was 0.68 s⁻¹; in data set [1] (TCO 0.40 mM) it was 0.77 s⁻¹. Also, the krel in data set [1] is recorded as 8.0.

Regarding `COC(=O)CCc1nnc(-c2cccc(C#N)c2)nn1` [5i, methyl 3-(6-(3-cyanophenyl)-1,2,4,5-tetrazin-3-yl)propanoate], the “k2, second order rate constant” value in data set [1] was 69.88 ± 4.824 M⁻¹ s⁻¹. Also, the kobs in data set [1] (TCO 0.25 mM) came to 0.21 s⁻¹; in data set [1] (TCO 0.30 mM), 0.24 s⁻¹; in data set [1] (TCO 0.35 mM), 0.029 s⁻¹; in data set [1] (TCO 0.40 mM), 0.032 s⁻¹. For the same molecule, the krel in data set [1] amounted to 0.35.

Consider `COC(=O)CCc1nnc(-c2ccoc2)nn1` [5l, methyl 3-(6-(furan-3-yl)-1,2,4,5-tetrazin-3-yl)propanoate], for which the “times less reactive than 5b” value in data set [1] (reaction with 5-hydroxyTCO) is 2.9 times. Also, the decomposition per day in data set [2] stood at 1.7%. The logP in the data set “Experimental log P” worked out at 1.2.

For `C=C(OCC)c1nnc(-c2ccccc2)nn1` [6a, 3-(1-ethoxyvinyl)-6-phenyl-1,2,4,5-tetrazine], the “k2, second order rate constant” value in data set [1] turned out to be 2007 ± 101.3 M⁻¹ s⁻¹. In addition, the kobs turned out to be 0.52 s⁻¹ in data set [1] (TCO 0.25 mM), 0.62 s⁻¹ in data set [1] (TCO 0.30 mM), 0.70 s⁻¹ in data set [1] (TCO 0.35 mM) and 0.83 s⁻¹ in data set [1] (TCO 0.40 mM). The krel in data set [1] amounted to 10. Moreover, in data set [2], the decomposition per day was found to be 0.8%.

With `O=C(OC(C(F)(F)F)C(F)(F)F)N1CCC(CNS(=O)(=O)c2ccc(-c3nnc(-c4ccoc4)nn3)cc2)CC1` [100a, 1,1,1,3,3,3-hexafluoropropan-2-yl 4-((4-(6-(furan-3-yl)-1,2,4,5-tetrazin-3-yl)phenylsulfonamido)methyl)piperidine-1-carboxylate], the IC50 on human MAGL enzyme was 0.012 µM. In data set [3], this molecule showed a kobs of 0.003623 s⁻¹ and a krel of 3.

Regarding `C=C(OCC)c1nnc(-c2ccc(S(=O)(=O)NCC3CCN(C(=O)OC(C(F)(F)F)C(F)(F)F)CC3)cc2)nn1` [100b, 1,1,1,3,3,3-hexafluoropropan-2-yl 4-((4-(6-(1-ethoxyvinyl)-1,2,4,5-tetrazin-3-yl)phenylsulfonamido)methyl)piperidine-1-carboxylate], the IC50 on human MAGL enzyme came to 0.046 µM. In data set [3], this molecule returned a kobs of 0.031 s⁻¹ and a krel of 25. Besides, the “fold more reactive than 100a” value in data set [3] (stopped flow kinetics with 5-hydroxyTCO) is reported as 8.6 fold.

Turning to `O=C(OC(C(F)(F)F)C(F)(F)F)N1CCC(C(O)(c2ccc3c(c2)OCO3)c2ccc3c(c2)OCO3)CC1` [KML29, reference compound], the “competition of probe 9 labeling of MAGL” value on endogenous MAGL (probe 9 32 nM 1 h after pre-treatment with KML29 300 nM 1 h) is reported as “competed”.

For `Cc1nnc(-c2ccc(-n3ccc(C4CCN(C(=O)OC(C(F)(F)F)C(F)(F)F)CC4)n3)cc2)nn1` [compound 9, 1,1,1,3,3,3-hexafluoropropan-2-yl 4-(1-(4-(6-methyl-1,2,4,5-tetrazin-3-yl)phenyl)-1H-pyrazol-3-yl)piperidine-1-carboxylate], the IC50 on human MAGL enzyme came out at 0.031 µM; on endogenous MAGL (human brain vascular pericytes, probe 1 h, then 2 μM TCO-TAMRA 30 min, in-gel fluorescence, read-out: cellular IC50 of MAGL labeling) it was 0.008 µM. Besides, at endogenous MAGL (human brain vascular pericytes, in-gel fluorescence, consistent with ABHD6), the “off-target labeling in live cells” value was “labeled an additional protein at ˜35 kDa”. The “kobs, average rate constant” value in data set [4] came to 0.01033 s⁻¹. In data set [4], the “krel of 9 versus 10” value was 1.1 and 1.06.

Consider `Cc1nnc(-c2ccc(CN)cc2)nn1` [compound 10, 3-methyl-6-(4-aminomethyl)tetrazine, reference compound], for which the “kobs, average rate constant” value in data set [4] amounted to 0.00975 s⁻¹.

(Values after patent publication US11767302B2, “Reagents and methods for tetrazine synthesis” (University of Delaware, priority 2020, dated 2023).)
